# Test results taken from US10179816B2, “Pharmaceutical compositions comprising an antibody which binds the human anti-Müllerian hormone receptor type II” (LABORATOIRE FRANCAIS DU FRACTIONNEMENT DES BIOTECHNOLOGIES, priority 2011, dated 2019).
# “And” between values parts separate entries of the source, which are not always exact repeats. Equal entries are not always repeated.
# Legend:
# [1] = system: Cov434-AMHRII Asc1a5 tumour cells;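 further: control mice received NaCl solution, survival endpoint was euthanasia once tumour volume hit 2000 mm^3 or on ethical grounds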
# Description: A solution of NaCl was used as the control.
# (§1) The animals were sacrificed when the tumour volumes reached 2000 mm^3 or for ethical reasons. The curves of mean values and median values as well as the statistical analyses were stopped when 20% of the mice in the group were dead.
# [2] = system: Cov434-AMHRII Asc1a5 tumour cells (a cell line of human ovarian cancer); assay: Anti-tumour activity of 3C23K alone or with paclitaxel in Cov434-AMHRII Asc1a5 xenograft (tumour volume, T/C ratio, statistical analysis); conditions: for Kruskal-Wallis Test: contrast vs control; for Individual tumour volume: individual mice;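 on all read-outs here: subcutaneous Cov434-AMHRII Asc1a5 xenografts in female Swiss nude mice, tumour volume from length×width×height/2 in mm^3, randomized D13, dosing from D14, 8 mice per group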
# Protocol: Female Swiss nude mice (Harlan Laboratories) were injected subcutaneously (s.c.) with 7.10^6 cells of Cov434-AMHRII Asc1a5 (cell line of human ovarian cancer transfected with cDNA AMHRII) in Matrigel (1:1 ratio) under a volume of 150 μL on day 0 (D0).
# The mice were randomized on D13, when the volume of the tumours was between 58 and 150 mm^3, and the treatments began on D14 (8 mice per group).
# The tumours were usually measured twice weekly. Tumour volume (TV) was calculated using the following formula, in which the length corresponds to the largest of the tumour diameters, the width corresponds to the smallest of the tumour diameters and the tumour height: TV (mm^3)=(length×width×height)/2.
# In addition, for each group, curves of tumour growth were plotted using the calculated mean tumour volumes or the median tumour volumes.
# as §1
# In one experiment with 8 mice per group, the curves and analyses were stopped when fewer than 7 values per group had been obtained (7 mice alive).
# The statistical differences between the different groups were analysed by ANOVA comparison using the Statgraphics centurion XV software.
# The ANOVA table breaks down the variance into two components: an inter-group component and an intra-group component. The ratio F is the ratio of the inter-group estimate to the intra-group estimate. When the P value of test F is greater than or equal to 0.05, there is no statistically significant difference between the mean values of the two groups, with a confidence level of 95%. P values less than 0.05 indicate a significant difference between the mean values of the two groups with a confidence level of 95%.
# A Kruskal-Wallis test was also carried out. When the P value is greater than or equal to 0.05, there is no statistically significant difference between the median of the two groups, with a confidence level of 95%. P values less than 0.05 indicate a significant difference between the medians of the two groups with a confidence level of 95%.
# The treatment is initiated on day 14 after injection.
# [3] = Day 13, randomization, before treatment
smiles,measurement,setting,value
"CC(=O)O[C@H]1C(=O)[C@@]2(C)[C@H]([C@H](OC(=O)c3ccccc3)[C@]3(O)C[C@H](OC(=O)[C@H](O)[C@@H](NC(=O)c4ccccc4)c4ccccc4)C(C)=C1C3(C)C)[C@]1(OC(C)=O)CO[C@@H]1C[C@@H]2O [paclitaxel, reference compound]",Survival parameter: logrank test chi-squared,[1]; contrast vs control,0.04
same,Survival parameter Mean,[1]; group of 8 mice,45 days
same,Survival parameter Median,[1]; group of 8 mice,45 days
same,survival parameter,"[1]; individual mice, experiment ended on day 83",34 Days and 41 Days (2×) and 45 Days (2×) and 51 Days (2×) and 55 Days
same,Statistical analysis based on the survival parameter (in words),"[1]; mouse, in vivo",does not have an activity that is significantly different from that of the control
same,Kruskal-Wallis Test,[2]; D13,0.04
same,Kruskal-Wallis Test,[2]; D20,0.47
same,Statistical analysis of tumour volume (in words),[2]; D20 to D41,does not have an activity that is significantly different from that of the control
same,Kruskal-Wallis Test,[2]; D24,0.28
same,Kruskal-Wallis Test,[2]; D27,1.10
same,Kruskal-Wallis Test,[2]; D31,0.89
same,Kruskal-Wallis Test,[2]; D35,0.10
same,Kruskal-Wallis Test,[2]; D41,0.20
same,Mean tumour volume,[2]; [3],97 mm^3
same,Median tumour volume,[2]; [3],90 mm^3
same,Individual tumour volume,[2]; Day 13,126 mm3 and 117 mm3 and 98 mm3 and 83 mm3 (2×) and 66 mm3 and 144 mm3 and 58 mm3
same,Mean tumour volume,[2]; Day 20,226 mm^3
same,Median tumour volume,[2]; Day 20,228 mm^3
same,Individual tumour volume,[2]; Day 20,424 mm3 and 243 mm3 and 240 mm3 and 280 mm3 and 170 mm3 and 126 mm3 and 217 mm3 and 105 mm3
same,Mean tumour volume,[2]; Day 24,313 mm^3
same,Median tumour volume,[2]; Day 24,270 mm^3
same,Individual tumour volume,[2]; Day 24,756 mm3 and 257 mm3 and 356 mm3 and 284 mm3 and 380 mm3 and 180 mm3 (2×) and 110 mm3
same,Median tumour volume,[2]; Day 27,336 mm^3
same,Individual tumour volume,[2]; Day 27,896 mm3 and 325 mm3 and 386 mm3 and 255 mm3 and 560 mm3 and 347 mm3 and 270 mm3 and 198 mm3
same,Mean tumour volume,[2]; Day 31,589 mm^3
same,Median tumour volume,[2]; Day 31,415 mm^3
same,Individual tumour volume,[2]; Day 31,1530 mm3 and 420 mm3 and 673 mm3 and 410 mm3 (2×) and 720 mm3 and 358 mm3 and 192 mm3
same,Mean tumour volume,[2]; Day 35,1176 mm^3
same,Median tumour volume,[2]; Day 35,986 mm^3
same,Individual tumour volume,[2]; Day 35,2706 mm3 and 699 mm3 and 1200 mm3 and 1008 mm3 and 1653 mm3 and 965 mm3 and 823 mm3 and 351 mm3
same,Mean tumour volume,[2]; Day 41,1390 mm^3
same,Median tumour volume,[2]; Day 41,1309 mm^3
same,Individual tumour volume,[2]; Day 41,1064 mm3 and 2380 mm3 and 1309 mm3 and 1389 mm3 and 2269 mm3 and 884 mm3 and 437 mm3
same,Individual tumour volume,[2]; Day 45,1632 mm3 and 2040 mm3 and 2112 mm3 and 1197 mm3 and 798 mm3
same,Individual tumour volume,[2]; Day 48,1536 mm3 and 1323 mm3 and 1232 mm3
same,Individual tumour volume,[2]; Day 51,2166 mm3 and 2112 mm3 and 1348 mm3
same,Individual tumour volume,[2]; Day 55,2132 mm3
same,Anti-tumour activity (in words),[2]; paclitaxel study,modest inhibition of tumour growth
